The subject of this assay is T1, Serratia marcescens glucose isomerase (SmGI).
T1 construct: gene xylA; native, from S. marcescens lysate; 70 °C heat step and 10 kD ultrafiltration only (no chromatography); main SDS-PAGE band about 60 kD
The assay is described as follows: fructose formation by fructose assay kit, Lineweaver-Burk; heat-treated, ultrafiltered extract. The class given is biochemical. Particulars: free enzyme, no added Co2+; 60 °C, 1 h; glucose 2.5-400 mM; pH of kinetic assay not stated. The text has this:
fructose formation by fructose assay kit, Lineweaver-Burk; heat-treated, ultrafiltered extract on Serratia marcescens glucose isomerase (SmGI)

Our source for the Km values is paper PMC10888103, “Enhanced High-Fructose Corn Syrup Production: Immobilizing Serratia marcescens Glucose Isomerase on MOF (Co)-525 Reduces Co^2+ Dependency in Glucose Isomerization to Fructose” (Foods, 2024).

With `OC[C@H]1OC(O)[C@H](O)[C@@H](O)[C@@H]1O` (stereo partly shown) [glucose], the Km is 44.3 ± 3.1 mM.
